Literature values as cited in patent EP0280593B1, “Composition on the basis of an amino-acid and vitamins for use in cancer therapy” (Rougereau, André, priority 1987, dated 1988).

How the values were obtained:
souris = details: par voie orale chez la souris
rat = details: par voie orale chez le rat

NCCC(=O)O [β-alanine]
dose léthale DL₅₀ (souris): > 10000 mg/kg
dose léthale DL₅₀ (rat): > 10000 mg/kg
